IC50 data for ten molecules are collected here from patent publication US10683297B2 (Sunshine Lake Pharma Co., Ltd., priority 2017, dated 2020).

Molecules are shown by their SMILES.

This assay concerns the target T1, JAK3 (h) (Homo sapiens, UniProt P52333).
T1 construct: purchased Millipore UK Ltd (assays performed there as a service)
T1 sequence (P52333 1-1124): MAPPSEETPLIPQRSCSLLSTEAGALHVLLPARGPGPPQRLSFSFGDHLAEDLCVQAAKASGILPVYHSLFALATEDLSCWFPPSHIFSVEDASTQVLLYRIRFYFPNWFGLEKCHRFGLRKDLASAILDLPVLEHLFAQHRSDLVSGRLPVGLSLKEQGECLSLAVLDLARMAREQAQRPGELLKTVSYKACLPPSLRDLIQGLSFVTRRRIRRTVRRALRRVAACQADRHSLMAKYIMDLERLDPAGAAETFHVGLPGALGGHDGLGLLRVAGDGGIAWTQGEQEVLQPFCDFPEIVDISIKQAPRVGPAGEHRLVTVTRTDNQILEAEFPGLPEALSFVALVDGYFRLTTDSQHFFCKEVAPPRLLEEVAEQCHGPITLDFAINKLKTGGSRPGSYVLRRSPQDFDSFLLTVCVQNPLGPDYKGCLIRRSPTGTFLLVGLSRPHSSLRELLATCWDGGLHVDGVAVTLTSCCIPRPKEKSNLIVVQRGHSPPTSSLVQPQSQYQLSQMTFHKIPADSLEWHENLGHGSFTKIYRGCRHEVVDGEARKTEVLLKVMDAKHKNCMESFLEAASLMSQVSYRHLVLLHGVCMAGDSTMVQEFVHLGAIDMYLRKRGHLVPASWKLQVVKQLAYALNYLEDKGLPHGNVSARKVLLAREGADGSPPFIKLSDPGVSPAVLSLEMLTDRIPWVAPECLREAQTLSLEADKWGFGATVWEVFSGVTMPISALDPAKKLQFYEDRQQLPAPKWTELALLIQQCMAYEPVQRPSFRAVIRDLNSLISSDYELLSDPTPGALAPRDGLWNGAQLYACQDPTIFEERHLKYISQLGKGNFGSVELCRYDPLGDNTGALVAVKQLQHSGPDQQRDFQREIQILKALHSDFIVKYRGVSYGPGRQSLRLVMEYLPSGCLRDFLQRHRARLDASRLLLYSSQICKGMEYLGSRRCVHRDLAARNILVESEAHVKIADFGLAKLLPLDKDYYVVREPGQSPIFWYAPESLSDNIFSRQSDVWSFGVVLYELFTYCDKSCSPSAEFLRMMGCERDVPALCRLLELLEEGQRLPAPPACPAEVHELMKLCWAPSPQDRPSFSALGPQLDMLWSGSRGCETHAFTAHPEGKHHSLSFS
In words: JAK3 (h) kinase assay. The format is biochemical. Conditions: [γ-33P-ATP] 10 μM or KM values; 40 minutes at room temperature. The procedure: Kinase assays can be performed by measurement of incorporation of γ-^33P ATP into immobilized myelin basic protein (MBP). High binding white 384 well plates (Greiner) are coated with MBP (Sigma # M-1891) by incubation of 60 μL well of 20 μg/mL MBP in Tris-buffered saline (TBS; 50 mM Tris pH 8.0, 138 mM NaCl, 2.7 mM KCl) for 24 h at 4° C. Plates are washed 3× with 100 μL TBS. Kinase reactions are carried out in a total volume of 34 μL in kinase buffer (according to the need to make, for example, 5 mM Hepes pH 7.6, 15 mM NaCl, 0.01% bovine gamma globulin (Sigma #1-5506), 10 mM MgCl2, 1 mM DTT, 0.02% TritonX-100). Compound dilutions are performed in DMSO and added to assay wells to a final DMSO concentration of 1%. Each data point is measured in duplicate, and at least two duplicate assays are performed for each individual compound determination. Enzyme is added to final concentrations of 10 nM or 20 nM, for example. A mixture of unlabeled ATP and γ-^33P ATP is added to start the reaction (2×10^6 cpm of γ-^33P ATP per well (3000 Ci/mmole) and 10 μM unlabeled ATP, typically. The reactions are carried out for 1 hour at room temperature with shaking. Plates are washed 7× with TBS, followed by the addition of 50 μL well scintillation fluid (Wallac). Plates are read using a Wallac Trilux counter. This is only one format of such assays; various other formats are possible, as known to one skilled in the art.
The above assay procedure can be used to determine the IC50 for inhibition and/or the inhibition constant, Ki. […] The IC50 value is estimated by preparing a 10 point curve using a ½ log dilution series (for example, a typical curve may be prepared using the following compound concentrations: 3 μM, 1 μM, 0.3 μM, 0.1 μM, 0.03 μM, 0.01 μM, 0.003 μM, 0.001 μM, 0.0003 μM and 0 μM).
[…] The reaction is initiated by the addition of the MgATP mix. After incubation for 40 minutes at room temperature, the reaction is stopped by the addition of 3% phosphoric acid solution. 10 μL of the reaction is then spotted onto a P30 filtermat and washed three times for 5 minutes in 75 mM phosphoric acid and once in methanol prior to drying and scintillation counting.
The kinase assays described herein were performed at Millipore UK Ltd, Dundee Technology Park, Dundee DD2 1SW, UK.
Consider `N#Cc1ccc(N2CCC(Nc3nc(Nc4ccn5c(C(F)F)nnc5c4)ncc3Cl)CC2)nc1` [Example 30, 6-(4-((5-chloro-2-((3-(difluoromethyl)-[1,2,4]triazolo[4,3-a]pyridin-7-yl)amino)pyrimidin-4-yl)amino)piperidin-1-yl)nicotinonitrile], for which the IC50 (commonly the concentration that inhibits the measured activity by half) is 127 nM. In other words, the sub-micromolar range.

The molecule `Cc1nc2cc(Nc3ncc(Cl)c(NC4CCN(c5ccc(C#N)cn5)CC4)n3)ccn2n1` [Example 32, 6-(4-((5-chloro-2-((2-methyl-[1,2,4]triazolo[1,5-a]pyridin-7-yl)amino)pyrimidin-4-yl)amino)piperidin-1-yl)nicotinonitrile] registered a 50% inhibitory concentration (IC50) of 60 nM.

For the molecule `CC(C)(O)c1nc2cc(Nc3ncc(Cl)c(NC4CCN(c5ccc(C#N)nn5)CC4)n3)ccn2n1` [Example 55, 6-(4-((5-chloro-2-((2-(2-hydroxypropan-2-yl)-[1,2,4]triazolo[1,5-a]pyridin-7-yl)amino)pyrimidin-4-yl)amino)piperidin-1-yl)pyridazine-3-carbonitrile], the IC50 was found to be 291 nM.

For `CC(O)Cn1cnc2cc(Nc3ncc(Cl)c(NC4CCN(c5ccc(C#N)cn5)CC4)n3)ccc21` (stereo not shown) [Example 61, 6-(4-((5-chloro-2-((1-(2-hydroxypropyl)-1H-benzo[d]imidazol-5-yl)amino)pyrimidin-4-yl)amino)piperidin-1-yl)nicotinonitrile], the IC50 came out at 5 nM.

Molecule `CC(C)(O)Cn1nnc2cc(Nc3ncc(Cl)c(NC4CCN(c5ccc(C#N)cn5)CC4)n3)ccc21` [Example 69, 6-(4-((5-chloro-2-((1-(2-hydroxy-2-methylpropyl)-1H-benzo[d][1,2,3]triazol-5-yl)amino)pyrimidin-4-yl)amino)piperidin-1-yl)nicotinonitrile] had an IC50 of 5 nM. This lies in the single-digit nanomolar range.

`CC(C)(O)Cc1cn2cc(Nc3ncc(Cl)c(NC4CCN(c5ccc(C#N)cn5)CC4)n3)ccc2n1` [Example 73, 6-(4-((5-chloro-2-((2-(2-hydroxy-2-methylpropyl)imidazo[1,2-a]pyridin-6-yl)amino)pyrimidin-4-yl)amino)piperidin-1-yl)nicotinonitrile] returned a concentration for half-maximal inhibition (IC50) of 112 nM.

Regarding `CC(C)(O)Cc1nnc2cc(Nc3ncc(Cl)c(NC4CCN(c5ccc(C#N)cn5)CC4)n3)ccn12` [Example 74, 6-(4-((5-chloro-2-((3-(2-hydroxy-2-methylpropyl)-[1,2,4]triazolo[4,3-a]pyridin-7-yl)amino)pyrimidin-4-yl)amino)piperidin-1-yl)nicotinonitrile], the IC50 is 64 nM.

With `CC(C)(O)Cc1nnc2cc(Nc3ncc(Cl)c(NC4CCN(c5ccc(C#N)nn5)CC4)n3)ccn12` [Example 75, 6-(4-((5-chloro-2-((3-(2-hydroxy-2-methylpropyl)-[1,2,4]triazolo[4,3-a]pyridin-7-yl)amino)pyrimidin-4-yl)amino)piperidin-1-yl)pyridazine-3-carbonitrile], the half-inhibitory concentration (IC50) is 202 nM.

In turn, `CC(C)(O)Cc1nc2cc(Nc3ncc(Cl)c(NC4CCN(c5ccc(C#N)nn5)CC4)n3)ccn2n1` [Example 77, 6-(4-((5-chloro-2-((2-(2-hydroxy-2-methylpropyl)-[1,2,4]triazolo[1,5-a]pyridin-7-yl)amino)pyrimidin-4-yl)amino)piperidin-1-yl)pyridazine-3-carbonitrile] had an IC50 of 353 nM.

Consider `CC(C)(O)Cc1nc2cc(Nc3ncc(Cl)c(NC4CCN(c5ccc(C#N)cn5)CC4)n3)ccn2n1` [Example 78, 6-(4-((5-chloro-2-((2-(2-hydroxy-2-methylpropyl)-[1,2,4]triazolo[1,5-a]pyridin-7-yl)amino)pyrimidin-4-yl)amino)piperidin-1-yl)nicotinonitrile], for which half-maximal inhibition (IC50) required 344 nM. The IC50 values of the last two molecules are within 1.5-fold of each other.
